Three molecules from paper PMC6391964, “Radical‐Mediated Thiol‐Ene Strategy: Photoactivation of Thiol‐Containing Drugs in Cancer Cells” (Angewandte Chemie (International Ed. in English), 2018) can be followed below.

The test system of data set [1] is HCT-116 colon carcinoma cells. In kind it is cell-based, human. On the procedure: (§1) T a bl e S4. The parallel artific ial membrane permeability assay (PAM PA). […]
(§2) […] The cel l s were s pl it before reac hi ng confl uence w i t h 0. 05% T ry ps i n-ED TA (G i bco™, The rmo Fisher Scientific).
(§3) C ell v ia bility a ssa y
HC T-116 cells suspended in McCoy’s 5A m edium were plated in 96 -w el l pl at es (200 μ L, 2, 500 cells/well), incubated (37 °C, 5% CO2), and 24 h later treated with various concentrations of compou nds or s ol v ent cont rol (0. 25% D M SO). […] […] Cell viability w as cal cul at ed accordi ng t o t he manufact u rer’ s i ns t ruct i ons (Promeg a).
T a bl e S5. GI50 of the L argazole, L argazole Thiol and Stapled L argazole

The nature of data set [2]: Parallel artificial membrane permeability assay (PAMPA). In kind it is in vitro ADME. As to conditions: PAMPA Evolution, Pion GIT-0 phospholipid mixture, ~50 μM, ~15 h, UV read-out, average of quadruplicates. The protocol: […] […] The effect i v e permeability, Pe, of each compound was measured at the customer -s peci fi ed pHs i n t he dono r compart ment us i ng l ow-bi ndi ng , l ow UV P ri s ma bu ffer. […] The propri et ary s cav eng er mi mi cs s erum prot ei ns and bl ood ci rcul at i on, t hus creat i ng si nk condi t i ons .
I n t he defaul t p rot oc ol t he a queous s ol ut i ons of s t udi ed com poun ds are p repared by di l ut i ng and thoroughly mixing 3 μL of DMSO stock in 600μL of Prisma HT buffer. Final concentration of org ani c s ol v ent (D M SO) i n aqueous buf fer i s ≤ 0. 5 % (v /v ).
The PAM PA s andw i ch was assembl ed and al l owed to i ncubat e for ~15 ho urs . The s ol ut i ons i n t he don or compart ment w ere un- stirred within du ration of t he ex peri ment . Thus , t he t hi ck nes s of t he aqueous bounda ry l ay er ex pect ed t o be about 1000 μ m. […] Ket oprofen, Verapmi l and P ropan ol ol w ere us ed as […]
[…] […] Act ual pH t he bu ffers w as 7. 40 ± 0. 05.
S t o c k sol u ti ons preparation
The samples were diluted with an organic solvent (DMSO) to prepare stock s ol ut i ons at concent rat i on ~10 mM . […] 40 […]
as §1, §2, §3
HC T-116 cells suspended in McCoy’s 5A m edium were plated in 96 -w el l pl at es (200 μ L, 2, 500 […]
On the technique in general: PAMPA measures passive passage across an artificial lipid membrane.

The subject of data set [3] is HCT-116 cells. The data set can be described thus: Photoactivation of stapled largazole in HCT-116 cells (cell viability). In kind it is cell-based, human. As to conditions: stapled largazole 150 nM premixed with DPAP 1.5 μM, UV 365 nm, 80 W, 15 min, then 48 h, compared with non-irradiation, stapled largazole and largazole thiol groups. The protocol:
(§4) Viability Viability Viability
(§5) DPAP Toxicity DPAP+64W-15min DPAP+80W-15min
(§6) Figu r e S7. The DPAP c onc entration and UV c ondition Sc reening. a) The cytotoxicity of DPAP without UV; b) The cytotoxicity of DPAP with UV, 365 nm, 64W, 15 min; c) The cytotoxicity of DPAP with UV, 365 nm, 80W, […]
(§7) P hotoa ctiv a tion of S ta pled La r g a zole in H C T-116 cells
(§8) Plate Cells Compounds UV CellTiter Blue Detect
(§9) Sch eme S6. The phot oact ivat ion of St apled L argazole in HC T- 116 c ells.
(§10) […] […] […] Aft er a not her 48 h of i ncubat i on, t he cel l v i abil it y w as measured according to the general method a bove.
(§11) H istone D ea cety la se ( H D AC ) Activ ity Assa y ( Fluor om etr ic) Following the measurement of the cell viability, the plates were washed with cold PBS for three t i mes. […]
(also on this page, place not known: Condition Screening Figure concentration condition Screening. Photoactivation Stapled Largazole HCT-116 Scheme photoactivation Stapled Largazole HCT-116 cells. HCT-116 cells plated in 200 μL medium per well density 2,500 cells/well grown in plates. incubated oC, 5% CO2). After h, cells various (Largazole, Largazole Thiol Stapled Largazole nM, 1.5 μM) solvent control (0.25% DMSO). group irradiated with light W) min. After another of incubation, viability was above. […]

In data set [4] the test system is HDAC. Briefly: Fluorometric HDAC activity assay with HCT-116 cell lysates. In kind it is cell-based, human. As to conditions: UV-irradiated premixed group of stapled largazole and DPAP, relative to control groups and non-irradiation group, Ex/Em 355/460 nm. On the procedure:
as §4, §5, §6, §7, §8, §9, §10, §11
(also on this page, place not known: Condition Screening Figure concentration condition Screening. Photoactivation Stapled Largazole HCT-116 Scheme photoactivation Stapled Largazole HCT-116 cells. HCT-116 cells plated in 200 μL medium per well density 2,500 cells/well grown in plates. incubated oC, 5% CO2). After h, cells various (Largazole, Largazole Thiol Stapled Largazole nM, 1.5 μM) solvent control (0.25% DMSO). group irradiated with light W) min. […]
(Thermo Sci ent i fi c™). […] Aft er be i ng i ncubat ed fo r an ot her 30 mi n at R T, t he fl uores cence i nt ens i t y w as read at Ex /Em = 35 5 n m / 4 60 nm. […]

Data set [5] is described as follows: UV-initiated thiol-ene decaging reaction (HPLC). The class given is physicochemical. As to conditions: 1-thio-β-D-glucose tetraacetate and DPAP, UV irradiation 365 nm, 15 minutes; HPLC trace. The text has this:
Inspired by this AFCT reaction, we hypothesized that the isobutylene structure could be used as a bridging graft to cage thiol‐containing drugs and allow further controlled activation of anticancer drugs by means of a radical‐mediated thiol‐ene mechanism (Scheme 1). […] Our research began with N‐tert‐butoxycarbonyl‐L‐cysteine methyl ester (N‐Boc‐Cys‐OMe 1), which was protected with 3‐bromo‐2‐bromomethyl‐1‐propene (Table 1 and Supporting Information). The stapled cysteine 2 was then screened under a series of reaction conditions. Firstly, different PIs were tested with the same amounts of thiol source, 1‐thio‐β‐D‐glucose tetraacetate (4AcGlcSH), and 2 under irradiation at 365 nm. […] However, the other PI, 2,2‐dimethoxy‐2‐phenylacetophenone (DPAP) successfully promoted the reaction and released 1. β‐Mercaptoethanol (BME) was also tested as the thiol compound under the same reaction conditions. […] However, when N,N‐dimethylformamide (DMF) was used as solvent, two mixed disulfides resulting from the reaction between the 1‐thioglucose and N‐Boc‐cysteine methyl ester 1′ were observed. […]
The cyclic depsipeptide largazole is a marine natural product, and its derivatives are recognized as promising potential anticancer therapeutics. […] Next, the growth‐inhibitory activity was evaluated with human colon carcinoma cell lines, HCT‐116 (Figure 2 c). […]

One may read the GI50 as the concentration at which growth is held to half of that of the control.

Structures are written as SMILES. Where two headings read alike, the source gives them in different places.

In turn, `CC(C)[C@@H]1NC(=O)[C@]2(C)CSC(=N2)c2csc(n2)CNC(=O)C[C@@H](/C=C/CCS)OC1=O` [largazole thiol] had a concentration for 50% growth inhibition (GI50) in data set [1] (48 h) of 185 nM.
Regarding `CCCCCCCC(=O)SCC/C=C/[C@@H]1CC(=O)NCc2nc(cs2)C2=N[C@@](C)(CS2)C(=O)N[C@@H](C(C)C)C(=O)O1` [largazole], it took 1.43 nM to inhibit growth in data set [1] (48 h) by half (GI50).
For `C=C(CSCC/C=C/[C@@H]1CC(=O)NCc2nc(cs2)C2=N[C@@](C)(CS2)C(=O)N[C@@H](C(C)C)C(=O)O1)CSCC/C=C/[C@@H]1CC(=O)NCc2nc(cs2)C2=N[C@@](C)(CS2)C(=O)N[C@@H](C(C)C)C(=O)O1` [stapled largazole], the “logPe (Avg. logPe)” value in data set [2] (donor Prisma HT buffer pH 7.4, acceptor sink buffer pH 7.4, DMSO <0.5%, unstirred) was −5.29. Moreover, the Papp in data set [2] (donor Prisma HT buffer pH 7.4, acceptor sink buffer pH 7.4, DMSO <0.5%, unstirred, read-out: Pe, effective permeability (Avg. Pe)) was determined as 5.3 ×10⁻⁶ cm/s. Moreover, in data set [2] (donor pH 7.4, by mass balance), the “Avg. %R, membrane retention” value is 10%. In addition, the GI50 in data set [1] (HCT-116 cells, 48 h treatment, CellTiter-Blue, read-out: GI50) amounted to 408 nM. The “Cell viability after photoactivation” value in data set [3] is “significantly lower cell viability”. The “HDAC activity (fluorescence) after photoactivation” value in data set [4] is on record as “significant decrease of fluorescence”. Further, the “Conversion in the decaging reaction” value in data set [5] was “Full conversion”.
